Reference: patent publication US20130089627A1, “METHOD FOR TREATING A CANCER CAUSED BY CANCER STEM CELLS” (NEW BELLUS ENTERPRISES CO., LTD., priority 2011, published 2013)

Key:
[1] = system: lung cancer stem cells; assay: Co-administration with chemotherapy drugs, lung cancer stem cells; format: cell-based, human
Excerpt: (§1) The definition of half maximal inhibitory concentration (IC50) is the concentration for survival rate of 50% under the reaction with drugs or compounds.
(§2) Cisplatin: cis-diammineplatinum(II) dichloride (Sigma-Aldrich, USA)
(§3) Taxol: Paclitaxel (Sigma-Aldrich, USA)
(§4) According to the pretested half maximal inhibitory concentration (IC50) of D1˜D5, different cancer stem cells were used to test the cytotoxic concentration for (1) the co-administration of A. camphorata extracts with the chemotherapy drug, Cisplatin; (2) the co-administration of A. camphorata extracts with the chemotherapy drug, Taxol.

[2] = system: Glioblastomas multiform cancer stem cells; assay: Co-administration with chemotherapy drugs, GBM cancer stem cells; format: cell-based
Excerpt: as §1, §2, §3, §4

[3] = system: Head and neck squamous cell carcinoma cancer stem cells; assay: Co-administration with chemotherapy drugs, HNSCC cancer stem cells; format: cell-based
Excerpt: as §1, §2, §3, §4

[4] = system: colorectal cancer stem cells; assay: Co-administration with chemotherapy drugs, colorectal cancer stem cells; format: cell-based
Excerpt: as §1, §2, §3, §4

[5] = system: breast cancer stem cells; assay: Co-administration with chemotherapy drugs, breast cancer stem cells; format: cell-based
Excerpt: as §1, §2, §3, §4

[6] = system: Hepatoma cancer stem cells; assay: Co-administration with chemotherapy drugs, hepatoma cancer stem cells; format: cell-based
Excerpt: as §1, §2, §3, §4

[7] = system: human lung cancer stem cells (Lung CSC); assay: MTT cytotoxicity test, lung cancer stem cells; format: cell-based
Excerpt: (§5) The purpose of the present invention is to screen for the A. camphorata extracts with anti-cancer activity. MTT (3-(4,5-dimethylthiazol-2-yl)-2,5-diphenyltetrazolium bromide) assay was used to complete the cytotoxicity test. Human lung cancer stem cells (lung CSC), human Adult fibroblast-1 (AF-1), glioblastoma multiforme cancer stem cells (GBM CSC), human Adult fibroblast-2 (AF-2), head and neck squamous cell carcinoma cancer stem cells (HNSCC CSC), colorectal cancer stem cells (CRC CSC), as well as breast cancer stem cells (Breast CSC), hepatoma cancer stem cells (hepatoma CSC), leukemia cancer stem cells (leukemia CSC) and gastric cancer stem cells (Gastric CSC) are used in cell experiments of the present invention.
(§6) The principle of cytotoxic activity test (MTT assay) is that succinate dehydrogenase in the mitochondria of a living cell can reduce MTT (3-(4,5-dimethylthiazol-2-yl)-2,5-diphenyltetrazolium bromide), and blue-violet formazan was formed under reaction with cytochrome C. Generally, the amount of formazan generated is proportional to the activity of the mitochondria and the number of living cells. After adding dimethyl sulfoxide (DMSO) to dissolve formazan, the number of living cells can be estimated by the optical density (OD) value. […]

[8] = system: colorectal cancer stem cells (CRC CSC); assay: MTT cytotoxicity test, colorectal cancer stem cells; format: cell-based
Excerpt: as §5, §6

[9] = system: breast cancer stem cells (Breast CSC); assay: MTT cytotoxicity test, breast cancer stem cells; format: cell-based
Excerpt: as §5, §6

[10] = system: Glioblastomas multiform cancer stem cells (GBM CSC); assay: MTT cytotoxicity test, GBM cancer stem cells (subline not stated); format: cell-based
Excerpt: as §5, §6

[11] = system: Lung adenocarcinoma CD133 positive cancer stem cells; assay: MTT cytotoxicity test, lung adenocarcinoma CD133 positive cancer stem cells; format: cell-based
Excerpt: (§7) The principle of cytotoxic activity test (MTT assay) is that succinate dehydrogenase in the mitochondria of a living cell can reduce MTT (3-(4,5-dimethylthiazol-2-yl)-2,5-diphenyltetrazolium bromide), and blue-violet formazan was formed under reaction with cytochrome C. Generally, the amount of formazan generated is proportional to the activity of the mitochondria and the number of living cells. After adding dimethyl sulfoxide (DMSO) to dissolve formazan, the number of living cells can be estimated by the optical density (OD) value.
as §1

[12] = system: oral cancer stem cells (Oral CSC); assay: MTT cytotoxicity test, oral cancer stem cells; format: cell-based
Excerpt: as §7, §1

[13] = system: cancer stem cells; assay: MTT cytotoxicity tests of 4-acetyl-antroquinonol B, summary in words; format: cell-based; conditions: lung adenocarcinoma CD133 positive, oral, GBM, breast and colorectal cancer stem cells
Excerpt: as §7

N.N.[Cl][Pt][Cl] [Cisplatin, cis-diammineplatinum(II) dichloride]
Cisplatin IC50 [1]: 17.98 µg/mL
Cisplatin IC50 [2]: 23.33 µg/mL
Cisplatin IC50 [3]: 18.87 µg/mL
Cisplatin IC50 [4]: 42.83 µg/mL
Cisplatin IC50 [5]: 20.23 µg/mL
Cisplatin IC50 [6]: 40.15 µg/mL

COC1=C(OC)C(OC(C)=O)C(C/C=C(\C)CCC2(C)CCC(=O)O2)C(C)C1=O (stereo not shown) [4-acetyl-antroquinonol B]
half maximal inhibitory concentration (IC50) of 4-acetyl-antroquinonol B [7]: 12.37 µg/mL
half maximal inhibitory concentration (IC50) of 4-acetyl-antroquinonol B [8]: 9.72 µg/mL
half maximal inhibitory concentration (IC50) of 4-acetyl-antroquinonol B [9]: 20.77 µg/mL
half maximal inhibitory concentration (IC50) of 4-acetyl-antroquinonol B [10]: 18.2 µg/mL
half maximal inhibitory concentration (IC50) of 4-acetyl-antroquinonol B [11]: 16.4 µg/mL
half maximal inhibitory concentration (IC50) of 4-acetyl-antroquinonol B [12]: 14.37 µg/mL
inhibitory effects on the growth of cancer stem cells (in words) [13]: effective inhibitory effects on the growth of cancer stem cells

CC(=O)O[C@H]1C(=O)[C@@]2(C)[C@H]([C@H](OC(=O)c3ccccc3)[C@]3(O)C[C@H](OC(=O)[C@H](O)[C@@H](NC(=O)c4ccccc4)c4ccccc4)C(C)=C1C3(C)C)[C@]1(OC(C)=O)CO[C@@H]1C[C@@H]2O [Taxol, Paclitaxel]
IC50 ([1]; Homo sapiens, read-out: Taxol IC50): 0.0137 µg/mL
IC50 ([2]; read-out: Taxol IC50): 0.0207 µg/mL
IC50 ([3]; read-out: Taxol IC50): 0.0102 µg/mL
IC50 ([4]; read-out: Taxol IC50): 0.0317 µg/mL
IC50 ([5]; read-out: Taxol IC50): 0.00983 µg/mL
IC50 ([6]; read-out: Taxol IC50): 0.0335 µg/mL
